{"source": "patent US9161925B2", "about": "“Therapeutic uses of beta-3 adrenergic receptor agonist derivatives in particular to modulate apoptosis” (SANOFI, priority 2007, dated 2015)", "assay_type_in_all_cases": "cell-based, human", "key": {"caspase-3 transcripts": {"tested_on": "caspase-3 transcripts", "experiment": "Real time quantitative RT-PCR of caspase-3 transcripts in myometrial tissue", "conditions": "LPS alone 2.08±0.63", "experimental": "(§1) Myometrial biopsies obtained from women with uncomplicated pregnancies were immediately transferred in sterile Dubelcco's Modified Eagle Medium (DMEM) and washed twice with sterile Phosphate Buffer Saline (PBS). Biopsies were cut into small strips, each being placed in a 24-well plate containing 2 ml of culture medium DMEM, without the use of antibiotics. Strips were then incubated at 37° C. with 5% CO2 for 48 h in order to allow cytokine levels to return to basal values (Fortunato S J, et al. Am J Reprod Immunol 1994; 32: 184-187).\nIn order to reproduce with LPS (Escherichia coli 055:B5) the findings on myometrial samples obtained from women with chorioamnionitis, myometrial strips were incubated with three different concentrations of LPS (50 ng/ml, 1 μg/ml and 10 μg/ml) at three different times (8 h, 24 h, 48 h). In a second set of experiments, in order to assess the role of TNF in LPS-induced apoptosis in myometrial tissue, the strips were incubated with LPS 10 μg/ml for 48 h with or without anti TNF antibodies (0.6 μg/ml) (Human TNF alpha/TNFSF1A antibody, R&D systems Europe, Lille, France, the concentration of the antibody used was chosen based on the manufacturer's recommendations). […]\nTotal RNA was prepared from 5 myometrial tissues obtained from 5 different women, using Trizol solution (Life Technologies, Groningen, The Netherlands) according to the manufacturer's instructions. […] Real time quantitative PCR analyses were performed using 25 ng of reverse transcribed total RNA with 200 nM of both sense and anti sense primers in a final volume of 25 μl using the SYBR Green PCR jumpstart reagent (Sigma, Saint Louis, Mo., USA) in an iCycler iQ real time detection system instrument (Bio-Rad, Marnes-la-Coquette, France). PCR products were also analyzed on edithium bromide stained agarose gel to ensure that a single amplicon of the expected size was indeed obtained. […]"}, "BCL2 protein": {"tested_on": "BCL2 protein", "experiment": "Western blot of BCL2 in myometrial strips stimulated with LPS", "experimental": "as §1, with “184-187). […]” for “184-187).”\n(§2) Snap-frozen myometrial tissues were homogenized with Ultra-Turrax in homogenization buffer [10 mM Tris-HCl (pH 7.4), 1 mM EDTA, […] leupeptine, 2 mM Pefabloc]. After an initial centrifugation at 500×g for 15 min at 4° C., total protein supernatant content was determined by the Bradford method with BSA as standard. […] Immunoreactive proteins were detected by chemiluminescence (ECL™ detection reagents, RPN2105, Amersham, USA) and exposure to a X-ray film (Hyperfilm™, Amersham Bioscience, USA). The intensities of the bands were analyzed densitometrically using the NIH Image 1.62 program and normalized with intensity of bands obtained with monoclonal antibody to Glyceraldehyde 3-Phosphate Dehydrogenase (GAPDH) used as protein loading control. Results are expressed as the mean±s.e.m. in Arbitrary Density Unit (A.D.U)."}, "IL8": {"tested_on": "IL8", "experiment": "Cytometric Bead Array, IL8 in supernatants of myometrial strips", "experimental": "as §1\n(§3) In order to reproduce with LPS (Escherichia coli 055:B5) the findings on myometrial samples obtained from women with chorioamnionitis, myometrial strips were incubated with three different concentrations of LPS (50 ng/ml, 1 μg/ml and 10 μg/ml) at three different times (8 h, 24 h, 48 h). […]\n(§4) Cytokines measurements were determined by Cytometric Bead Array (CBA; Bender MedSystems). Supernatants of 5 myometrial strips were incubated with labeled capture beads and detection reagent for 3 h in the dark at room temperature, and analyzed with a flow cytometer (FACSCalibur; BD Biosciences) by using the respective CBA Analysis software (BD Biosciences) and Bender MedSystems software. Cytokine standards for quantification (pg/mL) as well as the blanks were handled in the same manner as the samples. […]"}, "[1]": {"tested_on": "cleaved caspase-3 protein", "experiment": "Western blot of cleaved caspase-3 in myometrial strips stimulated with LPS", "experimental": "as §1, with “184-187). […]” for “184-187).”\nas §2"}, "BAX protein": {"tested_on": "BAX protein", "experiment": "Western blot of BAX in myometrial strips stimulated with LPS", "experimental": "as §1, with “184-187). […]” for “184-187).”\nas §2"}, "IL6": {"tested_on": "IL6", "experiment": "Cytometric Bead Array, IL6 in supernatants of myometrial strips", "experimental": "as §1, §3, §4"}, "[2]": {"conditions": "Compound A 10^-7, 10^-6, 10^-5 M with LPS 10 μg/ml 48 h, ANOVA P<0.01, FIG. 4"}, "[3]": {"conditions": "tissues not stimulated with LPS (data not shown)"}}, "data": [{"smiles": "CCOC(=O)c1ccc([C@H]2CC[C@H](NC[C@H](O)COc3ccc(O)c(NS(C)(=O)=O)c3)CC2)cc1.Cl", "note": "[Compound A, Ethyl-4-{trans-4-[((2S)-2-hydroxy-3-{4-hydroxy-3[(methylsulfonyl)-amino]phenoxy}propyl)amino]cyclohexyl}benzoate hydrochloride]", "values": [{"measurement": "caspase-3 transcripts, fold increase normalized to GAPDH compared with controls", "setting": "caspase-3 transcripts; LPS with Compound A 10^-5 M", "result": "0.93±0.41", "unit": "fold"}, {"measurement": "caspase-3 transcripts, fold increase normalized to GAPDH compared with controls", "setting": "caspase-3 transcripts; LPS with Compound A 10^-6 M", "result": "0.84±0.53", "unit": "fold"}, {"measurement": "caspase-3 transcripts, fold increase normalized to GAPDH compared with controls", "setting": "caspase-3 transcripts; LPS with Compound A 10^-7 M", "result": "1.17±0.81", "unit": "fold"}, {"measurement": "antagonism of LPS-induced BCL2 protein down-regulation", "setting": "BCL2 protein; [2]", "result": "antagonized in a concentration dependant manner"}, {"measurement": "effect by itself on BCL2 expression", "setting": "BCL2 protein; [3]", "result": "no effect"}, {"measurement": "effect on LPS-induced IL8", "setting": "IL8; Compound A with LPS, concentration dependent, ANOVA P=0.01, FIG. 5", "result": "decreased"}, {"measurement": "effect by itself on IL8 release", "setting": "IL8; [3]", "result": "not effect"}, {"measurement": "antagonism of LPS-induced changes in cleaved caspase-3 expression", "setting": "[1]; Compound A 10^-7, 10^-6, 10^-5 M with LPS 10 μg/ml 48 h, concentration dependent, ANOVA P<0.001, FIG. 3", "result": "significantly antagonize"}, {"measurement": "effect by itself on cleaved caspase-3 expression", "setting": "[1]; [3]", "result": "no effect"}, {"measurement": "antagonism of LPS-induced BAX protein up-regulation", "setting": "BAX protein; [2]", "result": "antagonized in a concentration dependant manner"}, {"measurement": "effect by itself on BAX expression", "setting": "BAX protein; [3]", "result": "no effect"}, {"measurement": "effect on LPS-induced IL6", "setting": "IL6; Compound A with LPS, concentration dependent, not statistically significant, FIG. 5", "result": "decreased"}, {"measurement": "effect by itself on IL6 release", "setting": "IL6; [3]", "result": "not effect"}]}]}
